Laboratory results: US7259140B2, “Heparin-binding peptides and uses thereof” (Thomas Jefferson University, priority 2003, dated 2007)
Ends that are not written are not given here.

How the values were obtained:
Assay type in all cases: biochemical, human
[1] = system: Lovenox ® Activity in Blood from Patients Treated with Lovenox ®; assay: Neutralizing Lovenox activity in blood from patients treated with Lovenox (anti-Factor Xa assay); conditions: Peptide 12 μg/ml
Procedure: Blood was obtained from volunteers who were being treated with Lovenox® for their medical conditions after obtaining signatures on informed consent forms as approved by the Institutional Review Board. The assays to test neutralization of Lovendx® were performed as described for Table 2. A dose response from 1-60 μg/ml was evaluated as in Table 2.
The dose response pattern for the effective peptides was similar to the dose response in control plasma to which Lovenox® had been added. Each data point represents the mean and standard deviation of triplicate analyses on the same sample of blood from each patient.

[2] = system: anti-Factor Xa Activity of Unfractionated Heparin; assay: Anti-Factor Xa assay: neutralization of unfractionated heparin in citrate or plasma in vitro; conditions: for Unfractionated Heparin Neutralized: UFH 0.7 U/ml
Procedure: The ability of peptides such as (ARKKAAKA)3VLVLVLVL (SEQ ID NO:5) to neutralize the anti-Factor Xa activity of UFH and LMWH in vitro was tested using the Stachrom Heparin kit (Diagnostica Stago), a standard hematology laboratory assay used to measure the anti-Factor Xa activity of heparin. The assay was performed using the low molecular weight heparin enoxaparin sodium (Lovenox®, Aventis Pharmaceuticals, Inc.), unfractionated heparin (UFH), or the non-heparin glycosaminoglycan danaparoid sodium (Orgaran®, Organon Inc., West Orange, N.J.) in 0.32% citrate or in plasma anticoagulated with 0.32% citrate. Enoxaparin is commonly used clinically as a low molecular weight heparin (LMWH). Danaparoid is commonly used clinically as a non-heparin glycosaminoglycan anticoagulant. Currently, the only FDA approved drug to target UFH is protamine, which is not effective in vivo against LMWH or a non-heparin glycosaminoglycan such as danaparoid. Buffer and ATIII are added to form the heparin/ATIII complex, peptide is added, then Factor Xa, reporter dye substrate for Factor Xa activity, and stop solution, and the dye concentration is read at 405 nm. The absorbance of the dye increases with increasing Factor Xa activity, and thus is inversely proportional to the heparin (anti-Factor Xa activity) concentration. Peptides were tested in plasma obtained from three volunteers (A, B, and C). Platelet function inhibitors PG12 and theophylline were added to the blood immediately upon collection. […]

[3] = system: anti-Factor Xa Activity of the Low Molecular Weight Heparin Lovenox ®; assay: Anti-Factor Xa assay (Stachrom Heparin kit): neutralization of Lovenox in citrate or plasma in vitro; conditions: for Lovenox ® Neutralized: Lovenox 0.7 U/ml
Procedure: The ability of peptides such as (ARKKAAKA)3VLVLVLVL (SEQ ID NO:5) to neutralize the anti-Factor Xa activity of UFH and LMWH in vitro was tested using the Stachrom Heparin kit (Diagnostica Stago), a standard hematology laboratory assay used to measure the anti-Factor Xa activity of heparin. The assay was performed using the low molecular weight heparin enoxaparin sodium (Lovenox®, Aventis Pharmaceuticals, Inc.), unfractionated heparin (UFH), or the non-heparin glycosaminoglycan danaparoid sodium (Orgaran®, Organon Inc., West Orange, N.J.) in 0.32% citrate or in plasma anticoagulated with 0.32% citrate. Enoxaparin is commonly used clinically as a low molecular weight heparin (LMWH). Danaparoid is commonly used clinically as a non-heparin glycosaminoglycan anticoagulant. Currently, the only FDA approved drug to target UFH is protamine, which is not effective in vivo against LMWH or a non-heparin glycosaminoglycan such as danaparoid. Buffer and ATIII are added to form the heparin/ATIII complex, peptide is added, then Factor Xa, reporter dye substrate for Factor Xa activity, and stop solution, and the dye concentration is read at 405 nm. The absorbance of the dye increases with increasing Factor Xa activity, and thus is inversely proportional to the heparin (anti-Factor Xa activity) concentration. Peptides were tested in plasma obtained from three volunteers (A, B, and C). Platelet function inhibitors PG12 and theophylline were added to the blood immediately upon collection.
Results. […] (ARKKAAKA)3VLVLVLVL (SEQ ID NO:5) and VLVL(ARKKAAKA)3ARKKCAKA (SEQ ID NO:38) were able to neutralize about 0.4 U/ml anti-Factor Xa activity of LMWH at a concentration of 12 μg/ml, which would be an effective dose for patients. (AKKARA)6 (SEQ ID […]), (ARKKAAKA)4 (SEQ ID NO:31) and (ARKKAAKA)3ARKKCAKA […] 0.3-0.35 U/ml. In contrast, 12 μg protamine only neutralized about 0.25 U/ml of LMWH under these conditions.

Sequence: ARKKAAKAAAAAAAAAAAAAAAAAARKKAAKA [ARKKAAKA(A16)ARKKAAKA, reference compound]
- Lovenox ® Neutralized ([1]; blood of Lovenox-treated Patient Number 1): 0 U/ml
- Lovenox ® Neutralized ([1]; blood of Lovenox-treated Patient Number 2): 0.011 U/ml
- Lovenox ® Neutralized ([1]; blood of Lovenox-treated Patient Number 3): 0.055 U/ml
- Lovenox ® Neutralized ([1]; blood of Lovenox-treated Patient Number 4): 0.035 U/ml
- Lovenox ® Neutralized ([1]; blood of Lovenox-treated Patient Number 5): 0.005 U/ml
- Lovenox ® Neutralized ([1]; blood of Lovenox-treated Patient Number 8): 0 U/ml
- Lovenox ® Neutralized ([1]; blood of Lovenox-treated Patient Number 9): 0.009 U/ml
- Lovenox ® Neutralized ([1]; blood of Lovenox-treated Patient Number 10): 0.062 U/ml
- Lovenox ® Neutralized ([1]; blood of Lovenox-treated Patient Number 11): 0.007 + U/ml
- Unfractionated Heparin Neutralized ([2]; 1 μg/ml Peptide, A Plasma): 0.080 ± 0.050 U/ml
- Unfractionated Heparin Neutralized ([2]; 1 μg/ml Peptide, B Plasma): 0.0 U/ml
- Unfractionated Heparin Neutralized ([2]; 1 μg/ml Peptide, C Plasma): 0.0 U/ml
- Unfractionated Heparin Neutralized ([2]; 1 μg/ml Peptide, Citrate): 0.040 ± 0.017 U/ml
- Unfractionated Heparin Neutralized ([2]; 6 μg/ml Peptide, A Plasma): 0.045 ± 0.029 U/ml
- Unfractionated Heparin Neutralized ([2]; 6 μg/ml Peptide, B Plasma): 0.005 ± 0.007 U/ml
- Unfractionated Heparin Neutralized ([2]; 6 μg/ml Peptide, C Plasma): 0.008 ± 0.012 U/ml
- Unfractionated Heparin Neutralized ([2]; 6 μg/ml Peptide, Citrate): 0.064 ± 0.020 U/ml
- Unfractionated Heparin Neutralized ([2]; 12 μg/ml Peptide, A Plasma): 0.026 ± 0.018 U/ml
- Unfractionated Heparin Neutralized ([2]; 12 μg/ml Peptide, B Plasma): 0.008 ± 0.012 U/ml
- Unfractionated Heparin Neutralized ([2]; 12 μg/ml Peptide, C Plasma): 0.0 U/ml
- Unfractionated Heparin Neutralized ([2]; 12 μg/ml Peptide, Citrate): 0.047 ± 0.025 U/ml
- Unfractionated Heparin Neutralized ([2]; 60 μg/ml Peptide, A Plasma): 0.100 ± 0.021 U/ml
- Unfractionated Heparin Neutralized ([2]; 60 μg/ml Peptide, B Plasma): 0.084 ± 0.034 U/ml
- Unfractionated Heparin Neutralized ([2]; 60 μg/ml Peptide, C Plasma): 0.022 ± 0.017 U/ml
- Unfractionated Heparin Neutralized ([2]; 60 μg/ml Peptide, Citrate): 0.156 ± 0.046 U/ml
- Unfractionated Heparin Neutralized ([2]; 120 μg/ml Peptide, A Plasma): 0.112 ± 0.036 U/ml
- Unfractionated Heparin Neutralized ([2]; 120 μg/ml Peptide, B Plasma): 0.084 ± 0.018 U/ml
- Unfractionated Heparin Neutralized ([2]; 120 μg/ml Peptide, C Plasma): 0.090 ± 0.019 U/ml
- Unfractionated Heparin Neutralized ([2]; 120 μg/ml Peptide, Citrate): 0.199 ± 0.039 U/ml
- effect in the anti-Factor Xa assay for UFH ([2]; in both citrate and plasma): minimal effects
- Lovenox ® Neutralized ([3]; 1 μg/ml Peptide, A Plasma): 0.010 ± 0.008 U/ml
- Lovenox ® Neutralized ([3]; 1 μg/ml Peptide, B Plasma): 0.027 ± 0.014 U/ml
- Lovenox ® Neutralized ([3]; 1 μg/ml Peptide, C Plasma): 0.0 U/ml
- Lovenox ® Neutralized ([3]; 1 μg/ml Peptide, Citrate): 0.020 ± 0.023 U/ml
- Lovenox ® Neutralized ([3]; 6 μg/ml Peptide, A Plasma): 0.018 ± 0.018 U/ml
- Lovenox ® Neutralized ([3]; 6 μg/ml Peptide, B Plasma): 0.042 ± 0.041 U/ml
- Lovenox ® Neutralized ([3]; 6 μg/ml Peptide, C Plasma): 0.0 U/ml
- Lovenox ® Neutralized ([3]; 6 μg/ml Peptide, Citrate): 0.013 ± 0.007 U/ml
- Lovenox ® Neutralized ([3]; 12 μg/ml Peptide, A Plasma): 0.025 ± 0.011 U/ml
- Lovenox ® Neutralized ([3]; 12 μg/ml Peptide, B Plasma): 0.042 ± 0.023 U/ml
- Lovenox ® Neutralized ([3]; 12 μg/ml Peptide, C Plasma): 0.008 ± 0.012 U/ml
- Lovenox ® Neutralized ([3]; 12 μg/ml Peptide, Citrate): 0.010 ± 0.007 U/ml
- Lovenox ® Neutralized ([3]; 60 μg/ml Peptide, A Plasma): 0.018 ± 0.020 U/ml
- Lovenox ® Neutralized ([3]; 60 μg/ml Peptide, B Plasma): 0.061 ± 0.067 U/ml
- Lovenox ® Neutralized ([3]; 60 μg/ml Peptide, C Plasma): 0.015 ± 0.012 U/ml
- Lovenox ® Neutralized ([3]; 60 μg/ml Peptide, Citrate): 0.017 ± 0.014 U/ml
- Lovenox ® Neutralized ([3]; 120 μg/ml Peptide, A Plasma): 0.043 ± 0.020 U/ml
- Lovenox ® Neutralized ([3]; 120 μg/ml Peptide, B Plasma): 0.092 ± 0.042 U/ml
- Lovenox ® Neutralized ([3]; 120 μg/ml Peptide, C Plasma): 0.003 ± 0.002 U/ml
- Lovenox ® Neutralized ([3]; 120 μg/ml Peptide, Citrate): 0.069 ± 0.035 U/ml
- effect in the anti-Factor Xa assay for Lovenox ([3]; in both citrate and plasma): minimal effects
